# In patent US20200017496A1 (priority 2017, published 2020):
# Read-outs that look alike come from different tables or passages of the source.
# Assays:
# Experiment in all cases: MIC of compounds alone and combined with antibacterials, broth microdilution (CLSI)
# Assay type in all cases: cell-based
# [1] = test system: Klebsiella oxytoca (KOX) isolates
# Method in brief: (§1)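 Inoculum 5·10^5 CFU/mL (final), log phase, ca-MHB; 16-20 h, 35° C, ambient air. MIC = lowest conc. with no visible growth; ATB MIC read at each compound level.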
# [2] = test system: Providencia rettgeri (PRE) isolates; conditions: for MIC: Providencia rettgeri, ATB alone
# Method in brief: as §1
# [3] = test system: Salmonella typhimurium (STY) isolates
# Method in brief: as §1
# [4] = test system: Serratia marcescens (SMA) isolates; conditions: for MIC: Serratia marcescens
# Method in brief: as §1
# [5] = strain PRE UFR236, antibacterial combined with AF1 @ 4 μg/mL
compound,measurement,setting,value
"COCC1=C(C(=O)O)N2C(=O)[C@@H](NC(=O)/C(=N\OC)c3csc(N)n3)[C@H]2SC1 [POD, Cefpodoxime]",MIC ATB in combination,"[1]; KOX UFR21, AF1 @ 4 μg/mL",1 µg/mL
same,MIC ATB in combination,"[1]; KOX UFR173, AF1 @ 4 μg/mL",0.5 µg/mL
same,MIC ATB in combination,"[1]; KOX UFR223, AF1 @ 4 μg/mL",<=0.25 μg/mL
same,MIC ATB in combination,"[1]; KOX UFR224, AF1 @ 4 μg/mL",<=0.25 μg/mL
same,MIC ATB in combination,"[2]; PRE UFR99, AF1 @ 4 μg/mL",>128 µg/mL
same,MIC ATB in combination,[2]; [5],1 µg/mL
same,MIC ATB in combination,"[3]; STY S3371, AF1 @ 4 μg/mL",<=0.25 μg/mL
same,MIC ATB in combination,"[4]; SMA UFR30, AF1 @ 4 μg/mL",0.5 µg/mL
same,MIC ATB in combination,"[4]; SMA UFR134, AF1 @ 4 μg/mL",2 µg/mL
same,MIC ATB in combination,"[4]; SMA UFR135, AF1 @ 4 μg/mL",4 µg/mL
same,MIC ATB in combination,"[4]; SMA UFR136, AF1 @ 4 μg/mL",8 µg/mL
same,MIC ATB in combination,"[4]; SMA UFR137, AF1 @ 4 μg/mL",0.5 µg/mL
same,MIC ATB in combination,"[4]; SMA UFR138, AF1 @ 4 μg/mL",0.5 µg/mL
same,MIC ATB in combination,"[4]; SMA UFR139, AF1 @ 4 μg/mL",2 µg/mL
same,MIC ATB in combination,"[4]; SMA UFR141, AF1 @ 4 μg/mL",2 µg/mL
same,MIC ATB in combination,"[4]; SMA UFR142, AF1 @ 4 μg/mL",1 µg/mL
same,MIC ATB in combination,"[4]; SMA UFR143, AF1 @ 4 μg/mL",1 µg/mL
same,MIC ATB in combination,"[4]; SMA UFR239, AF1 @ 4 μg/mL",2 µg/mL
same,MIC ATB in combination,"[4]; strain SMA UFR238, antibacterial combined with AF1 @ 4 μg/mL",2 µg/mL
"CC(C)(O/N=C(\C(=O)N[C@@H]1C(=O)N2C(C(=O)[O-])=C(C[n+]3ccccc3)CS[C@H]12)c1csc(N)n1)C(=O)O [CAZ, Ceftazidime]",MIC ATB in combination,"[1]; KOX UFR21, AF1 @ 4 μg/mL",2 µg/mL
same,MIC ATB in combination,"[1]; KOX UFR21, AF1 @ 8 μg/mL",<=0.25 μg/mL
same,MIC ATB in combination,"[1]; KOX UFR173, AF1 @ 8 μg/mL",<=0.25 μg/mL
same,MIC ATB in combination,"[1]; KOX UFR223, AF1 @ 4 μg/mL",<=0.25 μg/mL
same,MIC ATB in combination,"[1]; KOX UFR223, AF1 @ 8 μg/mL",<=0.25 μg/mL
same,MIC ATB in combination,"[1]; KOX UFR224, AF1 @ 4 μg/mL",<=0.25 μg/mL
same,MIC ATB in combination,"[1]; KOX UFR224, AF1 @ 8 μg/mL",<=0.25 μg/mL
same,MIC,"[1]; Klebsiella oxytoca, strain KOX UFR173 (OXY2-2), ATB alone, read-out: MIC",8 µg/mL
same,MIC,"[2]; strain PRE UFR99 (OXA-1, OXA-181)",> 256 µg/mL
same,MIC,"[2]; strain PRE UFR236 (TEM-1, OXA-48), read-out: MIC",32 µg/mL
same,MIC ATB in combination,[2]; [5],1 µg/mL
same,MIC ATB in combination,"[2]; strain PRE UFR236, antibacterial combined with AF1 @ 8 μg/mL",0.5 µg/mL
same,MIC ATB in combination,[3],<=0.25 μg/mL
same,MIC ATB in combination,"[4]; SMA UFR30, AF1 @ 4 μg/mL",<=0.25 μg/mL
same,MIC ATB in combination,"[4]; SMA UFR30, AF1 @ 8 μg/mL",<=0.25 μg/mL
same,MIC ATB in combination,"[4]; SMA UFR134, AF1 @ 8 μg/mL",<=0.25 μg/mL
same,MIC ATB in combination,"[4]; SMA UFR135, AF1 @ 4 μg/mL",2 µg/mL
same,MIC ATB in combination,"[4]; SMA UFR135, AF1 @ 8 μg/mL",1 µg/mL
same,MIC ATB in combination,"[4]; SMA UFR136, AF1 @ 4 μg/mL",2 µg/mL
same,MIC ATB in combination,"[4]; SMA UFR136, AF1 @ 8 μg/mL",1 µg/mL
same,MIC ATB in combination,"[4]; SMA UFR137, AF1 @ 4 μg/mL",<=0.25 μg/mL
same,MIC ATB in combination,"[4]; SMA UFR137, AF1 @ 8 μg/mL",<=0.25 μg/mL
same,MIC ATB in combination,"[4]; SMA UFR138, AF1 @ 4 μg/mL",<=0.25 μg/mL
same,MIC ATB in combination,"[4]; SMA UFR138, AF1 @ 8 μg/mL",<=0.25 μg/mL
same,MIC ATB in combination,"[4]; SMA UFR139, AF1 @ 4 μg/mL",<=0.25 μg/mL
same,MIC ATB in combination,"[4]; SMA UFR139, AF1 @ 8 μg/mL",<=0.25 μg/mL
same,MIC ATB in combination,"[4]; SMA UFR141, AF1 @ 8 μg/mL",<=0.25 μg/mL
same,MIC ATB in combination,"[4]; SMA UFR239, AF1 @ 4 μg/mL",8 µg/mL
same,MIC ATB in combination,"[4]; SMA UFR239, AF1 @ 8 μg/mL",4 µg/mL
same,MIC,[4],> 256 µg/mL
same,MIC,"[4]; strain SMA UFR30 (OXA-405), ATB alone, read-out: MIC",8 µg/mL
same,MIC,"[4]; strain SMA UFR134 (TEM-1, BES-1), ATB alone, read-out: MIC",8 µg/mL
same,MIC,"[4]; strain SMA UFR135 (TEM-1, KPC-2), ATB alone, read-out: MIC",32 µg/mL
same,MIC,"[4]; strain SMA UFR138 (SME-1), ATB alone, read-out: MIC",≤ 0.25 µg/mL
same,MIC,"[4]; strain SMA UFR139 (SME-2), ATB alone, read-out: MIC",≤ 0.25 µg/mL
same,MIC,"[4]; strain SMA UFR141 (OXA-48), ATB alone, read-out: MIC",1 µg/mL
same,MIC,"[4]; strain SMA UFR239 (ESAC), ATB alone, read-out: MIC",32 µg/mL
same,MIC ATB in combination,"[4]; strain SMA UFR238, antibacterial combined with AF1 @ 8 μg/mL",<=0.25 μg/mL
